Assay results published in PubChem BioAssay (NCI).
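Briefly, cells in 96-well plates were exposed to five compound concentrations for 48 h, and endpoints were estimated by linear interpolation. At the GI50, growth is halved. TGI is the concentration that stops growth completely.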

Legend:
Experiment in all cases: NCI anticancer screen, dose series, 48 h
[1] = system: MDA-MB-231 breast
[2] = system: MDA-MB-435
[3] = system: CAKI-1 renal
[4] = system: NCI/ADR-RES ovarian
[5] = system: SNB-19 CNS
[6] = system: BT-549 breast
[7] = system: TK-10 renal
[8] = system: M14 melanoma
[9] = system: NCI-H23 lung
[10] = system: OVCAR-3 ovarian

Compound	GI50 [1]	TGI [1]	GI50 [2]	TGI [2]	GI50 [3]	TGI [3]	GI50 [4]	TGI [4]	GI50 [5]	TGI [5]	GI50 [6]	TGI [6]	GI50 [7]	TGI [7]	GI50 [8]	TGI [8]	GI50 [9]	TGI [9]	GI50 [10]	TGI [10]
CCOC(=O)C(=Cc1c(-c2ccccc2)[nH]c2ccccc12)C(=O)OCC	5.71 µM	34.8 µM	3.36 µM	13.6 µM	8.26 µM	> 49.8 µM	2.84 µM	14.6 µM	21.6 µM	> 64.3 µM	5.17 µM	38.5 µM	13.5 µM	56.9 µM	4.16 µM	15.6 µM	2.56 µM	11.7 µM	4.21 µM	22.6 µM
Cc1cc(S(N)(=O)=O)c(S/C(=N\NS(=O)(=O)c2ccccc2)c2ccc(Cl)c(Cl)c2)cc1Cl	28.7 µM	> 100 µM	42.9 µM	> 100 µM	36.5 µM	> 100 µM	28.5 µM	77.6 µM	78.8 µM	> 100 µM	38.8 µM	> 100 µM	52 µM	> 100 µM	92.3 µM	> 100 µM	20.3 µM	49.9 µM	25.8 µM	72.7 µM
COc1ccccc1-c1nccc(COc2ccccc2C[C@@H](Oc2ncnc3sc(-c4ccc(F)cc4)c(-c4ccc(OCCN5CCN(C)CC5)c(Cl)c4C)c23)C(=O)O)n1	1.61 µM	3.29 µM	0.45 µM	2.21 µM	2.66 µM	9.89 µM	18.2 µM	> 100 µM	2.05 µM	4.58 µM	1.03 µM	2.59 µM	3.46 µM	14.9 µM	1.73 µM	4.05 µM	1.11 µM	3.84 µM	2.51 µM	6.99 µM
COc1ccc(-c2cn(-c3cc(OC)c(OC)c(OC)c3)c(=O)n2-c2ccccc2)cc1	> 100 µM	> 100 µM	> 100 µM	> 100 µM	> 100 µM	> 100 µM	74.6 µM	> 100 µM	> 100 µM	> 100 µM	> 100 µM	> 100 µM	> 100 µM	> 100 µM	> 100 µM	> 100 µM	> 100 µM	> 100 µM	43.1 µM	> 100 µM
Cc1cc(Nc2cc(N3CCN(C)CC3)nc(C#Cc3ccccc3)n2)n[nH]1	3.82 µM	16.5 µM	3.24 µM	16.1 µM	0.945 µM	8.71 µM	4.98 µM	28.8 µM	5.59 µM	19.5 µM	4.68 µM	17.8 µM	0.897 µM	6.79 µM	1.4 µM	14.7 µM	3.25 µM	18.5 µM	4.46 µM	17.8 µM
Cc1cc(C(=O)Nc2cc(Nc3ncccc3-c3ncnc4nc[nH]c34)ccc2F)cc(C(C)(C)C#N)c1	0.123 µM	5.36 µM	0.182 µM	> 100 µM	0.951 µM	> 100 µM	2.81 µM	> 100 µM	4.31 µM	> 100 µM	2.95 µM	> 100 µM	4.07 µM	> 100 µM	0.0388 µM	1.12 µM	0.379 µM	> 100 µM	5.99 µM	> 100 µM
NC(=O)c1c(NC(=O)c2cccc(C(F)(F)F)c2)sc2c1CCC(=O)C2	0.379 µM	2.73 µM	0.622 µM	7.68 µM	0.351 µM	7.29 µM	0.528 µM	7.69 µM	0.432 µM	> 100 µM	0.352 µM	9.08 µM	0.753 µM	13.3 µM	0.437 µM	11.6 µM	0.317 µM	4.29 µM	0.364 µM	1.34 µM
COC12C=C/C(=C(/C(=O)OCc3csc(SC)n3)C(=O)CCCCCCCCC3(OC)C=C/C(=C(/C(=O)OCc4cnc(SC)s4)C(=O)CCCCCCCC1)O3)O2 (stereo not given)	2.51 µM	26.2 µM	1.68 µM	5.32 µM	70 µM	> 100 µM	31.3 µM	> 100 µM	8.6 µM	> 100 µM	4.53 µM	69.8 µM	15.8 µM	74.8 µM	2.62 µM	> 100 µM	2.5 µM	> 100 µM	2.74 µM	> 100 µM
Fc1ccc(-c2cc(-c3cn[nH]c3-c3ccccn3)ccn2)cc1	> 25 µM	> 25 µM	> 25 µM	> 25 µM	> 25 µM	> 25 µM	> 19.5 µM	> 25 µM	> 25 µM	> 25 µM	> 25 µM	> 25 µM	> 25 µM	> 25 µM	> 17 µM	> 25 µM	> 12.8 µM	> 25 µM	> 25 µM	> 25 µM
C=C[C@@]1(C)CC(=O)[C@]2(O)[C@@]3(C)[C@@H](O)CCC(C)(C)[C@@H]3[C@H](O)[C@@H](OC(C)=O)[C@@]2(C)O1	–	> 100 µM	–	> 100 µM	–	> 100 µM	–	> 100 µM	–	> 100 µM	–	> 100 µM	–	> 100 µM	–	> 100 µM	–	> 100 µM	–	> 100 µM
CC(=O)Oc1ccc2c(c1)O/C(=C\c1ccc(O)cc1)C2=O	–	> 100 µM	–	> 100 µM	–	> 100 µM	–	> 100 µM	–	> 100 µM	–	> 100 µM	–	> 100 µM	–	> 100 µM	–	> 100 µM	–	> 100 µM
O=C(O)C(Cc1c[nH]c2ccccc12)N1C(=O)c2ccccc2C1=O (stereo not given)	–	> 100 µM	–	> 100 µM	–	> 100 µM	–	> 100 µM	–	> 100 µM	–	> 100 µM	–	> 100 µM	–	> 100 µM	–	> 100 µM	–	> 100 µM
N#CC1=C(N)Oc2c(sc3c(Br)cccc23)C1c1ccc(F)cc1 (stereo not given)	0.824 µM	15.9 µM	0.0691 µM	11.2 µM	0.437 µM	31.9 µM	0.215 µM	2.63 µM	0.719 µM	25 µM	1.01 µM	19.3 µM	0.436 µM	15.8 µM	0.3 µM	14.9 µM	0.416 µM	17.9 µM	0.265 µM	0.917 µM
